Measurements reported in ChEMBL document CHEMBL4385608, “5-Aryl-1,3,4-oxadiazol-2-ylthioalkanoic Acids: A Highly Potent New Class of Inhibitors of Rho/Myocardin-Related Transcription Factor (MRTF)/Serum Response Factor (SRF)-Mediated Gene Transcription as Potential Antifibrotic Agents for Scleroderma” (J Med Chem, 2019).
Activity calls are given as the source filed them. The calls are words filed in the database; no cut-off is given here.

Experiments:
[1] = Inhibition of Rho/MRTF/SRF pathway (unknown origin) expressed in HEK293T cells assessed as reduction in Galpha12-stimulated MRTF-selective SRE.L promoter-driven luciferase activity after overnight incubation by luminescence assay; assay type: cell-based, Homo sapiens
HEK-293T = assay: Cytotoxicity against HEK293T cells assessed as reduction in cell viability up to 100 uM by WST-1 assay relative to control; assay type: cell-based; conditions: human
[2] = Inhibition of Rho/MRTF/SRF pathway (unknown origin) expressed in human PC3 cells assessed as reduction in Galpha12 Q231L-stimulated MRTF-selective SRE.L promoter-driven luciferase activity after overnight incubation by luminescence assay; assay type: cell-based
PC-3 = assay: Cytotoxicity against human PC3 cells assessed as reduction in cell viability up to 100 uM by WST-1 assay relative to control; assay type: cell-based
Mus musculus [3] = assay: Antifibrotic activity in bleomycin-induced C57BL/6 mouse model of dermal fibrosis assessed as decrease in dermal thickness at 3 to 10 mg/kg, po administered via gavage for 14 days measured post-last dose by Masson's trichrome-staining based microscopic method; assay type: functional, organism-based
Mus musculus [4] = assay: Antifibrotic activity in bleomycin-induced C57BL/6 mouse model of dermal fibrosis assessed as decrease in hydroxyproline content at 3 to 10 mg/kg, po administered via gavage for 14 days measured post-last dose; assay type: functional, organism-based
[5] = Half-life in CD-1 mouse liver microsomes at 1 uM in presence of NADPH by LC-MS/MS analysis; assay type: ADME, Microsome
[6] = Equilibrium solubility of the compound in phosphate buffer saline; assay type: physicochemical
[7] = Half-life in CD-1 mouse at 30 mg/kg, po by LC-MS/MS analysis; assay type: ADME, organism-based; conditions: in vivo
[8] = Half-life in CD-1 mouse at 3 mg/kg, iv by LC-MS/MS analysis; assay type: ADME, organism-based; conditions: in vivo
[9] = Half-life in CD-1 mouse at 3 mg/kg, po by LC-MS/MS analysis; assay type: ADME, organism-based; conditions: in vivo
[10] = Half-life in CD-1 mouse at 10 mg/kg, po by LC-MS/MS analysis; assay type: ADME, organism-based; conditions: in vivo
[11] = AUC in CD-1 mouse at 30 mg/kg, po by LC-MS/MS analysis; assay type: ADME, organism-based; conditions: in vivo
[12] = AUC in CD-1 mouse at 3 mg/kg, iv by LC-MS/MS analysis; assay type: ADME, organism-based; conditions: in vivo
[13] = AUC in CD-1 mouse at 3 mg/kg, po by LC-MS/MS analysis; assay type: ADME, organism-based; conditions: in vivo
[14] = AUC in CD-1 mouse at 10 mg/kg, po by LC-MS/MS analysis; assay type: ADME, organism-based; conditions: in vivo
[15] = Clearance in CD-1 mouse at 3 mg/kg, iv by LC-MS/MS analysis; assay type: ADME, organism-based; conditions: in vivo
[16] = Cmax in CD-1 mouse at 30 mg/kg, po by LC-MS/MS analysis; assay type: ADME, organism-based; set-up: dose 30 mg/kg, route oral; conditions: in vivo
[17] = Cmax in CD-1 mouse at 3 mg/kg, iv by LC-MS/MS analysis; assay type: ADME, organism-based; set-up: dose 3 mg/kg, route intravenous; conditions: in vivo
[18] = Cmax in CD-1 mouse at 3 mg/kg, po by LC-MS/MS analysis; assay type: ADME, organism-based; set-up: dose 3 mg/kg, route oral; conditions: in vivo
[19] = Cmax in CD-1 mouse at 10 mg/kg, po by LC-MS/MS analysis; assay type: ADME, organism-based; set-up: dose 10 mg/kg, route oral; conditions: in vivo
[20] = Oral bioavailability in CD-1 mouse at 30 mg/kg by LC-MS/MS analysis; assay type: ADME, organism-based; conditions: in vivo
[21] = Oral bioavailability in CD-1 mouse at 3 mg/kg by LC-MS/MS analysis; assay type: ADME, organism-based; conditions: in vivo
[22] = Oral bioavailability in CD-1 mouse at 10 mg/kg by LC-MS/MS analysis; assay type: ADME, organism-based; conditions: in vivo
Homo sapiens [23] = species: Homo sapiens; assay: Inhibition of Rho/MRTF/SRF pathway in human primary dermal fibroblasts assessed as reduction in LPA-stimulated CTGF mRNA expression preincubated for 48 hrs followed by LPA stimulation and measured after 1 hr by qPCR analysis
Homo sapiens [24] = species: Homo sapiens; assay: Inhibition of Rho/MRTF/SRF pathway in human primary dermal fibroblasts assessed as reduction in LPA-stimulated CTGF mRNA expression preincubated for 72 hrs followed by LPA stimulation and measured after 1 hr by qPCR analysis

`CCCc1ccc(-c2nnc(SCCCC(=O)O)o2)c(Cl)c1` gave an IC50 [1] of less than 0.0001 nM and an Activity (HEK-293T) of less than 5%.

With `O=C(O)CCCSc1nnc(-c2ccc(C(F)(F)F)cc2)o1` the IC50 [1] was 46 nM and the Activity (HEK-293T) was less than 5%.

With `CCOC(=O)CCSc1nnc(-c2ccc(Cl)cc2Cl)o1` the IC50 [2] was 2.6 nM and the Activity (PC-3) was less than 5%.

With `O=C(O)CCCS(=O)(=O)c1nnc(-c2ccc(Cl)cc2Cl)o1` the IC50 [1] was greater than 100000 nM.

In the case of `COc1cccc(-c2nnc(SCCC(=O)O)o2)c1`, the IC50 [2] is reported as 3600 nM and the Activity (PC-3) is reported as less than 5%.

For `O=C(O)CCCSc1nnc(-c2ccc(C3CC3)cc2Cl)o1`, the Activity (Mus musculus [3]) was “Active”, the Activity (Mus musculus [4]) was “Active” and the IC50 [2] was 0.001 nM. For the same compound, the IC50 [1] was 0.001 nM, the Activity (PC-3) was less than 5% and the t1/2 [5] was 0.783 h. It also gave a solubility thermodynamic [6] greater than 1000 µM, a half-life [7] of 2.2 h and a half-life [8] of 1.7 h. For the same compound, the half-life [9] was 1.6 h, the half-life [10] was 1.8 h and the AUC [11] was 9.5 µg·h/mL. The AUC [12] was 3.25 µg·h/mL, the AUC [13] was 0.361 µg·h/mL and the AUC [14] was 1.83 µg·h/mL. For the same compound, the clearance [15] was 0.924 L/h/kg, the Cmax [16] was 10.1 µg/mL and the Cmax [17] was 8.14 µg/mL. The Cmax [18] was 0.397 µg/mL, the Cmax [19] was 1.43 µg/mL and the bioavailability [20] was 29%. For the same compound, the bioavailability [21] was 11%, the bioavailability [22] was 17% and the inhibition (Homo sapiens [23]) was “inactive”. For the same compound, the inhibition (Homo sapiens [24]) was “Dose-dependent effect” and the Activity (HEK-293T) was less than 5%.

Compound `O=C(O)CSCc1nnc(-c2ccc(Cl)cc2Cl)o1` has an IC50 [1] of 11500 nM.

For `CC(C)(F)c1ccc(-c2nnc(SCCCC(=O)O)o2)c(Cl)c1`, the IC50 [1] was 0.5 nM and the Activity (HEK-293T) was less than 5%.

For `O=C(O)CCCSc1nnc(-c2cccc(C3CC3)c2Cl)o1`, the IC50 [1] was 0.019 nM and the Activity (HEK-293T) was less than 5%.

`COc1ccc(-c2nnc(SCCC(=O)O)o2)cc1` gave an IC50 [2] of 160 nM and an Activity (PC-3) of less than 5%.

Work on `Cc1cc(Cl)c(-c2nnc(SCCC(=O)O)o2)cc1C` yielded an IC50 [1] of 0.23 nM and an Activity (HEK-293T) of less than 5%.

`O=C(O)CSc1nnc(-c2ccc(Cl)cc2Cl)o1` gave an Activity (PC-3) of less than 5%.

With `O=C(O)CCCc1nnc(-c2ccc(Cl)cc2Cl)o1` the IC50 [1] was greater than 100000 nM.

Work on `c1ccc(-c2nnc(SCCC3OCCCO3)o2)cc1` yielded an IC50 [2] greater than 100000 nM.

For `O=C(O)CCCCSc1nnc(-c2ccc(Cl)cc2Cl)o1`, the Activity (PC-3) was less than 5%.

For `CC(C)c1ccc(-c2nnc(SCCCC(=O)O)o2)c(Cl)c1`, the IC50 [1] was 0.0007 nM and the Activity (HEK-293T) was less than 5%.

With `CNC(=O)CCSc1nnc(-c2ccc(Cl)cc2Cl)o1` the Activity (PC-3) was less than 5%.

`COc1ccc(-c2nnc(SCCC(=O)O)n2C)cc1` gave an IC50 [2] greater than 100000 nM.

In the case of `COc1ccc(-c2nnc(SCCCC(=O)O)o2)c(Cl)c1`, the IC50 [1] is reported as 2 nM and the Activity (HEK-293T) is reported as less than 5%.

`O=C(O)CCCSc1nnc(-c2cc(C3CC3)ccc2Cl)o1` gave an IC50 [1] of 20 nM and an Activity (HEK-293T) of less than 5%.

With `O=C(O)CCSc1nnc(-c2ccccc2)o1` the IC50 [2] was 3500 nM and the Activity (PC-3) was less than 5%.

For `O=C(O)CCCSc1nnc(-c2ccc(Br)cc2Cl)o1`, the IC50 [1] was 0.07 nM and the Activity (HEK-293T) was less than 5%.

In the case of `O=C(O)CCSc1nnc(-c2ccc(Cl)cc2)o1`, the IC50 [2] is reported as 340 nM and the Activity (PC-3) is reported as less than 5%.

`O=C(O)CCSc1nnc(-c2cccc(Cl)c2)o1` showed an IC50 [2] of 1500 nM and an Activity (PC-3) of less than 5%.

`O=C(O)CCSc1nnc(-c2ccccc2Cl)o1` showed an IC50 [2] of 25 nM and an Activity (PC-3) of less than 5%.
